The values that follow come from PMC10507085, “Pharmacological inhibition of TBK1/IKKε blunts immunopathology in a murine model of SARS-CoV-2 infection” (Nature Communications, 2023).

Test in all cases: biochemical
Common to all, as to set-up: KINOMEscan competition binding, DNA-tagged kinase against immobilised ligand, qPCR read-out
What all share (details): read-out: Percent Control
For orientation: Real-time PCR tracks product formation cycle by cycle.

The target of one assay is ACVR1 (Homo sapiens, UniProt Q04771). The protocol: (§1) The KINOMEscan^TM kinase assays[65] were performed by Eurofins DiscoverX Corporation. For each kinase, the assay relies on the ability of the tested compound to compete against an immobilised ligand for binding to the DNA-tagged kinase. RT-qPCR is then used to measure the quantity of kinase molecules bound to the immobilised ligand, which is decreased if the tested compound competed with the kinase-ligand interaction. An 11-point 3-fold serial dilution of IDX compound was prepared in 100% DMSO at 100× final test concentration and subsequently diluted to 1× in the assay. […]

Another assay addresses BMX (Homo sapiens, UniProt P51813). How it is done:
as §1

A further assay deals with CDK3 (Homo sapiens, UniProt Q00526). The protocol:
as §1

A further assay addresses CDK9 (Homo sapiens, UniProt P50750). How it is done: as §1
In the next assay the target is CLK4 (Homo sapiens, UniProt Q9HAZ1). How it is done: as §1
In the next assay the target is CSNK1G2 (Homo sapiens, UniProt P78368). The protocol:
as §1

In a further assay the target is DMPK (Homo sapiens, UniProt Q09013). The protocol:
as §1

For a further assay, the target named is FGFR3 (Homo sapiens, UniProt P22607). How it is done: as §1
For a further assay, the target named is LRRK2 (Homo sapiens, UniProt Q5S007). How it is done: as §1
In a further assay the target is MAP3K4 (Homo sapiens, UniProt Q9Y6R4). The protocol:
as §1

A further assay addresses MAP4K5 (Homo sapiens, UniProt Q9Y4K4). The protocol: as §1
A further assay addresses NEK2 (Homo sapiens, UniProt P51955). The protocol:
as §1

The target of another assay is NEK3 (Homo sapiens, UniProt P51956). How it is done: as §1
Another assay deals with NEK4 (Homo sapiens, UniProt P51957). How it is done:
as §1

A further assay deals with T1, PAK7 (Homo sapiens, UniProt Q9P286).
T1 construct: gene PAK5
How it is done: as §1

In a further assay the target is PIKFYVE (Homo sapiens, UniProt Q9Y2I7). How it is done: as §1
Another assay has as its target PLK3 (Homo sapiens, UniProt Q9H4B4). How it is done:
as §1

The target of a further assay is RET (Homo sapiens, UniProt P07949). The protocol:
as §1

The target in another assay is STK10 (Homo sapiens, UniProt O94804). The protocol: as §1
The target of another assay is TNNI3K (Homo sapiens, UniProt Q59H18). How it is done:
as §1

Sequence of LRRK2 (Q5S007 whole entry): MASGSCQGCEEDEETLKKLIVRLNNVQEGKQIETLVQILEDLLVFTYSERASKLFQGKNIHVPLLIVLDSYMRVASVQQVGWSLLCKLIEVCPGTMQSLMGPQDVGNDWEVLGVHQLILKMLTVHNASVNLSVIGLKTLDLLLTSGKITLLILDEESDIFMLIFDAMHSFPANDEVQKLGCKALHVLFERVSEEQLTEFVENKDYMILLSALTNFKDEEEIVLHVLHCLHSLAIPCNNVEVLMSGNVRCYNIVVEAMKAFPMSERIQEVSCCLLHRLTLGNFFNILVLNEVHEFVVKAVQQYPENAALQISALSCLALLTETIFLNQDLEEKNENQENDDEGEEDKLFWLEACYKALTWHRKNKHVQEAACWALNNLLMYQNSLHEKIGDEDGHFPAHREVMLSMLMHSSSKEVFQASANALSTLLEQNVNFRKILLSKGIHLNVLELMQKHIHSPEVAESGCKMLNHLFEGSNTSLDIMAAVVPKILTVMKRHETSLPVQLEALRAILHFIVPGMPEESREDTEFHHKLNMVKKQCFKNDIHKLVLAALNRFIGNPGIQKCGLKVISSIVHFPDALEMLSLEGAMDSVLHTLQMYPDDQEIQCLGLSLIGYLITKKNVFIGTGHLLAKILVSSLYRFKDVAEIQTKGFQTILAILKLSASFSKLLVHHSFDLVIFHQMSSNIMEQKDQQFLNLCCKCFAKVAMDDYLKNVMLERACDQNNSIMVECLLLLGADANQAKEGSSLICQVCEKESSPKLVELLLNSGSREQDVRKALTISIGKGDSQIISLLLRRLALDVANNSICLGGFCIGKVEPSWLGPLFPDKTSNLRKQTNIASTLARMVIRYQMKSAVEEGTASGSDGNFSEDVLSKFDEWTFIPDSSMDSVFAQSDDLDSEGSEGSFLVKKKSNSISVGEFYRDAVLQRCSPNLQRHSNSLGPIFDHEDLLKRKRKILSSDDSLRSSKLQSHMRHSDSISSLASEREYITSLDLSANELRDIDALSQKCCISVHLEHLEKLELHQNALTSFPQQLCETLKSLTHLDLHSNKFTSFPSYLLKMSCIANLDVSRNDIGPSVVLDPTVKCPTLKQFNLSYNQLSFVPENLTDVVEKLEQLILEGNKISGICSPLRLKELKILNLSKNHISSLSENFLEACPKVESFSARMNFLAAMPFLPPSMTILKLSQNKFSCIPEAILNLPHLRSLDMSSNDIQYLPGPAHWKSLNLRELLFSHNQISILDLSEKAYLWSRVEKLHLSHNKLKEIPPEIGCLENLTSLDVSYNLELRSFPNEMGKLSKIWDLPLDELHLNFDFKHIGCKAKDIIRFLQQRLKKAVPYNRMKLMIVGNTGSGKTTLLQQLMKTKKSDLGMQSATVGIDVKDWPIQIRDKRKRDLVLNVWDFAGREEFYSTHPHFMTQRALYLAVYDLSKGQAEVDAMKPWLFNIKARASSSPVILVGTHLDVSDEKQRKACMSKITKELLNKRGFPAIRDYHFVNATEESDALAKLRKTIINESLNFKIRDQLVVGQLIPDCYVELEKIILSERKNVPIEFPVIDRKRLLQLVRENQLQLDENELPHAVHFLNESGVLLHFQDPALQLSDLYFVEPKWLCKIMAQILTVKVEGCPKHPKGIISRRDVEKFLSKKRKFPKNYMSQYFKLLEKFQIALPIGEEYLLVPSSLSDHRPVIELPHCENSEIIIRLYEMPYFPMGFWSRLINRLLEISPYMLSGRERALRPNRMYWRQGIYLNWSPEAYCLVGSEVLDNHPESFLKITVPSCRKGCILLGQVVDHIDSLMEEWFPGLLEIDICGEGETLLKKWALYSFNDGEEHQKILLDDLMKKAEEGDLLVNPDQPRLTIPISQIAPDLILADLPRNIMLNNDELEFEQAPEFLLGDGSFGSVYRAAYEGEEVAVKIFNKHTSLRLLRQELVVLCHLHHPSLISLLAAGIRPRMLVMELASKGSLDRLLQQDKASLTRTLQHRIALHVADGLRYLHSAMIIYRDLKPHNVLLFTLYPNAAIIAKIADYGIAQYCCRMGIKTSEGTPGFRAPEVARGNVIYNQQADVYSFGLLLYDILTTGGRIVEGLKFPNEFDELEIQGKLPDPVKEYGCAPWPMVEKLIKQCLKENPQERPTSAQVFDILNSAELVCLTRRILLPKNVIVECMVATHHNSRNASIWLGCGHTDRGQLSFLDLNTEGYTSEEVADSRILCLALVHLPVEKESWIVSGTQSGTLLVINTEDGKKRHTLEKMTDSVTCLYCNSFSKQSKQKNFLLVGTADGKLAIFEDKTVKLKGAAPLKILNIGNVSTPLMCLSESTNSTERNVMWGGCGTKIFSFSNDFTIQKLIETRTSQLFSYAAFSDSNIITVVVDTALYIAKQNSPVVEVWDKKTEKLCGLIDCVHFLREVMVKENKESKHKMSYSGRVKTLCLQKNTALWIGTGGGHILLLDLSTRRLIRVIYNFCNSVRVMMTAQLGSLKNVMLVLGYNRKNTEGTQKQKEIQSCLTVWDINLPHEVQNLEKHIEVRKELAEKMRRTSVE
Sequence of CSNK1G2 (P78368 whole entry): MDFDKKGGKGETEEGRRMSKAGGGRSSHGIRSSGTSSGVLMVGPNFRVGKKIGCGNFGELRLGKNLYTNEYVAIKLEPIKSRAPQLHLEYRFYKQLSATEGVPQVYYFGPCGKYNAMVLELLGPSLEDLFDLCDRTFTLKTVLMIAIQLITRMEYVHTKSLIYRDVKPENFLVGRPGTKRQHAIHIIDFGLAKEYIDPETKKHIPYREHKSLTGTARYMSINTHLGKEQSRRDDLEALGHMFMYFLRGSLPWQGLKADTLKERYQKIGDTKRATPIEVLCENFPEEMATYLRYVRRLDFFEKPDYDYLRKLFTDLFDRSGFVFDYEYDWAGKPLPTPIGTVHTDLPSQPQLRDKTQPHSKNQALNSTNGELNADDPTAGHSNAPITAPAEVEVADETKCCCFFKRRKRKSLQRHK
Sequence of PLK3 (Q9H4B4 whole entry): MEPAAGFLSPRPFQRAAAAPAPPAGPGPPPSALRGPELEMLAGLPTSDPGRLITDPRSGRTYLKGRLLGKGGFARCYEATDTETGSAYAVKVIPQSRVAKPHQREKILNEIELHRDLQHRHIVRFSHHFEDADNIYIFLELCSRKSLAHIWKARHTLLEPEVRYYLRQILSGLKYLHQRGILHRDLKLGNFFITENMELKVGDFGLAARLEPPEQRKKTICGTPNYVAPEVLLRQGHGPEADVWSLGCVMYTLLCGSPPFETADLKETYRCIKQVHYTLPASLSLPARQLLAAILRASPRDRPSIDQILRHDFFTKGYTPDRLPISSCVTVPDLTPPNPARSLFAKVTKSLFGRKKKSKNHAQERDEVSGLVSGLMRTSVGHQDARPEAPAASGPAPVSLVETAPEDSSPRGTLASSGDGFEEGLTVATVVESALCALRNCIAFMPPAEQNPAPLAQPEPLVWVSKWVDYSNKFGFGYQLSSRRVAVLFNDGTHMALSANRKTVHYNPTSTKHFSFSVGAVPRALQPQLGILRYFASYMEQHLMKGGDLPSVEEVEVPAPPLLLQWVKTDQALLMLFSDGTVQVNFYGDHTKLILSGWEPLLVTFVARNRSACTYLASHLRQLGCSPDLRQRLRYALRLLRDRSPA
Sequence of NEK4 (P51957 whole entry): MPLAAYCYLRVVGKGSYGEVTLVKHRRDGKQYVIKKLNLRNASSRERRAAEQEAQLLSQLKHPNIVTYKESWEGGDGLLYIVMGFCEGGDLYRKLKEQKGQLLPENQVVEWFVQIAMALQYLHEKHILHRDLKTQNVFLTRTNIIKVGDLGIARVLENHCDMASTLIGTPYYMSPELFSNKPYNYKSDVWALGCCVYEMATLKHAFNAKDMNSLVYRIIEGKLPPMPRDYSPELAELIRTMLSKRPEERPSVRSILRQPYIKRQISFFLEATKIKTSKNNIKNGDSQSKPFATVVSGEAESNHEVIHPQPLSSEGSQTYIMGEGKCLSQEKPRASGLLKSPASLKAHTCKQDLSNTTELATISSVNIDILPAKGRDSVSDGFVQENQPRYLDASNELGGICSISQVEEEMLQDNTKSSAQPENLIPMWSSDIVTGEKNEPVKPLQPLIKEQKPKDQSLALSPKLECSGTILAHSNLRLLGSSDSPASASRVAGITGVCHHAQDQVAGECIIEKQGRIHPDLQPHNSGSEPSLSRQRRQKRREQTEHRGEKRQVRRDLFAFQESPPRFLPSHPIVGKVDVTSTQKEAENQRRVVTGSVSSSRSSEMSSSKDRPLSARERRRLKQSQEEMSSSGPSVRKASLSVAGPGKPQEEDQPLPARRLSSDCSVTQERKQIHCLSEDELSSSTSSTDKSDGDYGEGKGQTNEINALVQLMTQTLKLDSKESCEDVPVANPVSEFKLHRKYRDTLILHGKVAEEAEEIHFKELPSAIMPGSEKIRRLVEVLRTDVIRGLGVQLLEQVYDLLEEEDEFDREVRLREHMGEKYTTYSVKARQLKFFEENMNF
Sequence of CDK9 (P50750 whole entry): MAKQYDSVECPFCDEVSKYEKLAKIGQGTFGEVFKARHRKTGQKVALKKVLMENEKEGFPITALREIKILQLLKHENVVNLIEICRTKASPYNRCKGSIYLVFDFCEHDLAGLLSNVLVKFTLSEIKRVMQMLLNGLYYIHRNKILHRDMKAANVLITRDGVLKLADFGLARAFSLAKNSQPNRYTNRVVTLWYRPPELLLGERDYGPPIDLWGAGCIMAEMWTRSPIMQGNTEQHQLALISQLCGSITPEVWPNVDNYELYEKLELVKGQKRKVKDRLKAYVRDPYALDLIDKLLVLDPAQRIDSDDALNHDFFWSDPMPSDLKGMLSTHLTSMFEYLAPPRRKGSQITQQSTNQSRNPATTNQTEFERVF

Turning to `Oc1ccc(C2=Cc3ccc(O)cc3OC2)cc1` [compound 1, idronoxil], the remaining binding at 10 µM on ACVR1 turned out to be 74%; at BMX, 75%; on CDK3, 89%; on CDK9 it was 91%; at CLK4 it was 36%; on CSNK1G2, 82%. In addition, the remaining binding at 10 µM at DMPK is 92%; on FGFR3 it was 80%; on LRRK2, 90%; on MAP3K4, 76%; on MAP4K5, 70%; on NEK2 it was 100%. The remaining binding at 10 µM is 80% on NEK3; 98% at NEK4; 95% on PAK7; 91% on PIKFYVE; 100% on PLK3; 96% at RET. For the same compound, the remaining binding at 10 µM at STK10 worked out at 100%; at TNNI3K it was 99%.
